Biological target: PLK1 (Homo sapiens, UniProt P53350)
Assay: PLK1 Inhibition Assay I (radioactive-phosphate incorporation)
Format: biochemical
Conditions: Ki(app); PLK1 Inhibition Assay I or II (table does not say which)
How it was run: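 Ki(app) values came from non-linear regression of initial rates after background subtraction, with phosphopeptide measured by phosphocellulose filter binding and scintillation counting. PLK1 at 2 nM was preincubated with compound (typically from 10 μM, 2-fold dilutions) for 10 min, then run 240 min at 25° C with 350 μM [γ-33P]ATP and 450 μM peptide substrate in HEPES pH 7.5 buffer.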

PLK1, sequence (P53350 whole entry): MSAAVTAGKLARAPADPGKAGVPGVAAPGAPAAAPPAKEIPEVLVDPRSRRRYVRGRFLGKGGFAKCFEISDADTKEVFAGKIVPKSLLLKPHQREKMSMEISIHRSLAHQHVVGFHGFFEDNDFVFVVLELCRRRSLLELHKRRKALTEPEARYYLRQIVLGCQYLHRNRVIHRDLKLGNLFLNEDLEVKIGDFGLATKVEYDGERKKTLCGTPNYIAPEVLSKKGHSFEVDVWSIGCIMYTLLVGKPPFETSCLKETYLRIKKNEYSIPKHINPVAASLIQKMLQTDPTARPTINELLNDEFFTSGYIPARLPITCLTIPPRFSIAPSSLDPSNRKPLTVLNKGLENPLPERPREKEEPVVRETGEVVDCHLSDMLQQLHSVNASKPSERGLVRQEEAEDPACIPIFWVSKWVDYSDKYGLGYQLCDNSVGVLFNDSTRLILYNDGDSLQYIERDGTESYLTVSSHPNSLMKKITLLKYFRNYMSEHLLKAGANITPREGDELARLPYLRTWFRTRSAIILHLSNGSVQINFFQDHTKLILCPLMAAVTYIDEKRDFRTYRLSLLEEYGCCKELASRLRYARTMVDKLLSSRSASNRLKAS

Structure (SMILES)	Ki [nM]
CC(Nc1ncc(C#N)c(-c2c[nH]c3ncc(C(F)(F)F)cc23)n1)c1ccc(N2CC(O)(C3CC3)C2)nc1 (centres unmarked) [Compound I-194, 2-(1-(6-(3-cyclopropyl-3-hydroxyazetidin-1-yl)pyridin-3-yl)ethylamino)-4-(5-(trifluoromethyl)-1H-pyrrolo[2,3-b]pyridin-3-yl)pyrimidine-5-carbonitrile]	3 to 40
CC(Nc1ncc(C#N)c(-c2c[nH]c3ncc(C(F)(F)F)cc23)n1)c1ccc(N2CCC(O)(C3CC3)CC2)nc1 (centres unmarked) [Compound I-195, 2-(1-(6-(4-cyclopropyl-4-hydroxypiperidin-1-yl)pyridin-3-yl)ethylamino)-4-(5-(trifluoromethyl)-1H-pyrrolo[2,3-b]pyridin-3-yl)pyrimidine-5-carbonitrile]	3 to 40
C[C@@H](Nc1ncc(C#N)c(-c2c[nH]c3ncc(C(F)(F)F)cc23)n1)c1ccc(S(N)(=O)=O)cc1 [Compound I-196, 4-((1R)-1-(5-cyano-4-(5-(trifluoromethyl)-1H-pyrrolo[2,3-b]pyridin-3-yl)pyrimidin-2-ylamino)ethyl)benzenesulfonamide]	< 3
CCC1(O)CCN(c2ccc(C(C)Nc3ncc(C#N)c(-c4c[nH]c5ncc(C(F)(F)F)cc45)n3)cn2)CC1 (centres unmarked) [Compound I-197, 2-(1-(6-(4-ethyl-4-hydroxypiperidin-1-yl)pyridin-3-yl)ethylamino)-4-(5-(trifluoromethyl)-1H-pyrrolo[2,3-b]pyridin-3-yl)pyrimidine-5-carbonitrile]	3 to 40
CC(Nc1ncc(C#N)c(-c2c[nH]c3ncc(C(F)(F)F)cc23)n1)c1ccc(N2CCC(O)(C(C)C)CC2)nc1 (centres unmarked) [Compound I-198, 2-(1-(6-(4-hydroxy-4-isopropylpiperidin-1-yl)pyridin-3-yl)ethylamino)-4-(5-(trifluoromethyl)-1H-pyrrolo[2,3-b]pyridin-3-yl)pyrimidine-5-carbonitrile]	3 to 40

Now from value to compound:

Ki [nM]	Structure (SMILES)
3 to 40	CC(Nc1ncc(C#N)c(-c2c[nH]c3ncc(C(F)(F)F)cc23)n1)c1ccc(N2CCC(F)CC2)nc1 (centres unmarked) [Compound I-199, 2-(1-(6-(4-fluoropiperidin-1-yl)pyridin-3-yl)ethylamino)-4-(5-(trifluoromethyl)-1H-pyrrolo[2,3-b]pyridin-3-yl)pyrimidine-5-carbonitrile]
< 3	CNS(=O)(=O)c1ccc([C@@H](C)Nc2ncc(C#N)c(-c3c[nH]c4ncc(C(F)(F)F)cc34)n2)cc1 [Compound I-200, 4-((1R)-1-(5-cyano-4-(5-(trifluoromethyl)-1H-pyrrolo[2,3-b]pyridin-3-yl)pyrimidin-2-ylamino)ethyl)-N-methylbenzenesulfonamide]
< 3	CC(Nc1ncc(C#N)c(-c2c[nH]c3ncc(C(F)(F)F)cc23)n1)c1ccc(N2CC(O)C2)nc1 (centres unmarked) [Compound I-201, 2-(1-(6-(3-hydroxyazetidin-1-yl)pyridin-3-yl)ethylamino)-4-(5-(trifluoromethyl)-1H-pyrrolo[2,3-b]pyridin-3-yl)pyrimidine-5-carbonitrile]
3 to 40	C[C@@H](Nc1ncc(C#N)c(-c2c[nH]c3ncc(C(F)(F)F)cc23)n1)C1CCNCC1 [Compound I-204, 2-((R)-1-(piperidin-4-yl)ethylamino)-4-(5-(trifluoromethyl)-1H-pyrrolo[2,3-b]pyridin-3-yl)pyrimidine-5-carbonitrile]
< 3	C[C@@H](Nc1ncc(C#N)c(-c2c[nH]c3ncc(C(F)(F)F)cc23)n1)C1CCN(C(=O)CO)CC1 [Compound I-205, 2-((R)-1-(1-(2-hydroxyacetyl)piperidin-4-yl)ethylamino)-4-(5-(trifluoromethyl)-1H-pyrrolo[2,3-b]pyridin-3-yl)pyrimidine-5-carbonitrile]
< 3	C[C@@H](Nc1ncc(C#N)c(-c2c[nH]c3ncc(C(F)(F)F)cc23)n1)C1CCN(C(=O)C(C)(C)O)CC1 [Compound I-206, 2-((R)-1-(1-(2-hydroxy-2-methylpropanoyl)piperidin-4-yl)ethylamino)-4-(5-(trifluoromethyl)-1H-pyrrolo[2,3-b]pyridin-3-yl)pyrimidine-5-carbonitrile]
